Laboratory results taken from ChEMBL document CHEMBL1201862, “PubChem BioAssay data set” (2004).
The source made the active and inactive calls.

Tests used:
Protein skinhead-1 = target: T1, Protein skinhead-1 (Caenorhabditis elegans, UniProt P34707); type: functional
T1 sequence (P34707 whole entry): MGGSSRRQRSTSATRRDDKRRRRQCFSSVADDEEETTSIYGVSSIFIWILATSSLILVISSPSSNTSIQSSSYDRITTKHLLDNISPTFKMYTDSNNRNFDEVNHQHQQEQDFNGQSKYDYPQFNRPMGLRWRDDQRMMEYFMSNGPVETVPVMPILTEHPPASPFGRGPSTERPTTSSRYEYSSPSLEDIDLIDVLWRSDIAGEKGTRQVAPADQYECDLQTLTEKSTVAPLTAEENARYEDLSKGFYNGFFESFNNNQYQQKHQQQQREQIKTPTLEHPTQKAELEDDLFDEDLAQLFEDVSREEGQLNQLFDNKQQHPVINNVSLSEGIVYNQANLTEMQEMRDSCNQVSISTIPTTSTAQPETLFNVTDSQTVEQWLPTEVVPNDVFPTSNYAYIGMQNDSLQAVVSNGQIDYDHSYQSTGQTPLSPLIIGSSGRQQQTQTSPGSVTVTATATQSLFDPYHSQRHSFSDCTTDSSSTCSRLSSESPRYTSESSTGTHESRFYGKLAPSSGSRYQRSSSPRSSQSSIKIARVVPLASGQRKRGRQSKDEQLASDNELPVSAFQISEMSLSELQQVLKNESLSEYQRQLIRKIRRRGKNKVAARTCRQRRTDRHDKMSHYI

[1] = target: T2, Ubiquitin-conjugating enzyme E2 N (Homo sapiens, UniProt P61088); type: functional;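 further: Dose-response confirmation in a TR-FRET assay detecting UBC13-driven polyubiquitin chain formation, inhibition measured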
T2 sequence (P61088 whole entry): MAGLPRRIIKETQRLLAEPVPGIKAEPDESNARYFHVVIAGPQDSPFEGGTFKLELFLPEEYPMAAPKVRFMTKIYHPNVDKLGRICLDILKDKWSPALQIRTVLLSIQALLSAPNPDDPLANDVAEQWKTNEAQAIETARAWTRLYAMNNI

[2] = Luminescence Cell-Based Dose Response HTS to Identify Activators of Luciferase Translation or Activity in H4 […] Cells. [Related pubchem assays: 1829 (Project Summary), 1814 (Primary HTS)]; type: functional
H4 = assay: Luminescence Cell-Based Dose Response HTS to Identify Activators of 5'UTR Stem-Loop Driven Prion Protein mRNA Translation in H4 Neuroglioblastoma Cells. [Related pubchem assays: 1829 (Project Summary), 1814 (Primary HTS)]; type: functional; settings: Homo sapiens
[3] = viability of uninfected HEp-2 cells – cell-based, HTS, cytotoxicity control for RSV inhibitor project, dose response (AID 2410); type: functional; settings: human respiratory syncytial virus
[4] = target: Luciferin 4-monooxygenase (Photinus pyralis, UniProt P08659); assay: inhibition of purified Photinus pyralis luciferase – biochemical, luminescence, dose response (AID 1891)
Chain of Luciferin 4-monooxygenase (P08659 whole entry): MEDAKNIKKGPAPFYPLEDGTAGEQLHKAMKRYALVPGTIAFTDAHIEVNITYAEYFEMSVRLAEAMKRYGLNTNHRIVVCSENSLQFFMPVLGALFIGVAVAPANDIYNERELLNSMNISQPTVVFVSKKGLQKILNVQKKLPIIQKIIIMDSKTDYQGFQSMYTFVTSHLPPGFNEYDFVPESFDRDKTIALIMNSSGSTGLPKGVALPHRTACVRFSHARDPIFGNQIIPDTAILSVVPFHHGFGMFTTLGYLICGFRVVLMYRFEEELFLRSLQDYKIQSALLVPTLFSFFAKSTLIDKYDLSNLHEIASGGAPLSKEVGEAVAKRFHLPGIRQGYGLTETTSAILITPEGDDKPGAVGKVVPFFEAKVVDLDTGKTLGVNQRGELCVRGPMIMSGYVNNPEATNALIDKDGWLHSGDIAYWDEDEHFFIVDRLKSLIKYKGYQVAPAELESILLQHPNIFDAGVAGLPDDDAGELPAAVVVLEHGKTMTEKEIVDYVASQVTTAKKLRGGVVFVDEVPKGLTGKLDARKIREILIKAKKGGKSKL

[5] = Luminescence Cell-Based Dose Confirmation HTS to Identify Inhibitors of Platelet Dense Granule Release. [Related pubchem assays: 1663 (Primary HTS), 1678 (Summary of Project)]; type: functional
INS1 = assay: INS-1E survival protection against cytokine death – cell-based, luminescence, retest, dose response (AID 449756); type: functional; settings: Rattus norvegicus;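 further: cell death triggered by IL-1 beta plus TNF-alpha plus IFN-gamma mixture; protective hits raise ATP signal compared with cytokine alone wells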
[6] = Luminescence Cell-Based Dose Retest to Confirm Inhibitors of Cancer Stem Cells. [Related pubchem assays (depositor defined):AID2717, AID2721]; type: functional; settings: Homo sapiens
[7] = system: Streptococcus sp. 'group A'; assay: Streptococcus pyogenes SK(-)GAS viability under kanamycin – luminescence, BacTiterGlo, confirmation, counter-screen for streptokinase expression inhibitor project, dose response (AID 1900); type: functional, organism-based
Streptokinase A = target: T3, Streptokinase A (Streptococcus pyogenes serotype M1, UniProt P10520); assay: viability-normalized secreted streptokinase activity reduction – plasminogen activation absorbance, OD405, dose response (AID 1914); type: functional, Streptococcus pyogenes M1 GAS;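 further: secreted streptokinase activity via plasminogen activation per viability signal from cell pellet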
T3 sequence (P10520 whole entry): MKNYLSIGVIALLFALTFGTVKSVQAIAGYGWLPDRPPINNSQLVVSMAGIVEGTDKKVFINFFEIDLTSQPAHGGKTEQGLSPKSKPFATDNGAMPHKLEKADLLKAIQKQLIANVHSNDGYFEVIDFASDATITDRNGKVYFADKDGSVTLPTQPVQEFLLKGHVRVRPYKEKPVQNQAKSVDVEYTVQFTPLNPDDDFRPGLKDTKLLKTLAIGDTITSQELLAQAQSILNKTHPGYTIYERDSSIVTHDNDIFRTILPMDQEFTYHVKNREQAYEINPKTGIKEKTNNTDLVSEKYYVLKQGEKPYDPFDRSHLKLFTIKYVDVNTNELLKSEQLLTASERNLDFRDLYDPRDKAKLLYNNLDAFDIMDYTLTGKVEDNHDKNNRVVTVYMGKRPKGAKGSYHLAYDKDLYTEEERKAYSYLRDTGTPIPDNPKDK

Streptococcus = assay: GAS UMAA2166 growth inhibition – luminescence, BacTiterGlo, counter-screen for streptokinase expression inhibitor project, dose response (AID 1915); type: functional, organism-based; settings: read-out: EC50;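 further: potency for reduction of bacterial viability or growth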
Protein RecA = target: T4, Protein RecA (Mycobacterium tuberculosis, UniProt P9WHJ3); assay: Fluorescence Cell-Free Homogeneous Dose Retest to Identify Inhibitors of RecA-Intein Splicing Activity. [Related pubchem assays (depositor defined):AID2097, AID2223, AID489010, AID492950]; type: functional
T4 sequence (P9WHJ3 whole entry): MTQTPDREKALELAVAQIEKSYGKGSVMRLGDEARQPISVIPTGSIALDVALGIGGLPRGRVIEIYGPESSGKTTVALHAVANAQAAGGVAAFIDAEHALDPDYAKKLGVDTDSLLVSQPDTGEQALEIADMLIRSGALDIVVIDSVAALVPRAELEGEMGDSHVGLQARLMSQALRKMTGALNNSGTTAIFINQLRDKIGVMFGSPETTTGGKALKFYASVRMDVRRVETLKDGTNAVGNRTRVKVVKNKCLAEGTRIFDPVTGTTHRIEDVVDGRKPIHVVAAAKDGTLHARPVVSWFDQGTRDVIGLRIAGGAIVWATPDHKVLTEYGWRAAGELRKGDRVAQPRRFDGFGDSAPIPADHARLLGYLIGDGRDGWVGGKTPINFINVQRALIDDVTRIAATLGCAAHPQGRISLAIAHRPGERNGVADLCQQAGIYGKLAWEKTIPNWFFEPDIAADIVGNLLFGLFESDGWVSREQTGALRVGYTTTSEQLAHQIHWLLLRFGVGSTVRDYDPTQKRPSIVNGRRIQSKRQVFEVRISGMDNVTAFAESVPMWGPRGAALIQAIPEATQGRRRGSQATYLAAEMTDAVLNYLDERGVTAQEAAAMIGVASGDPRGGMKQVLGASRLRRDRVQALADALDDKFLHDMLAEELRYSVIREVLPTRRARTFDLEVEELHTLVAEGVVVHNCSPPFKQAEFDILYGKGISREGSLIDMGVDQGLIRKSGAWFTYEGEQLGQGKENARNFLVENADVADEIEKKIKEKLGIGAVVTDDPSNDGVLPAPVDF

[8] = blockers of HIV-1 ZM109 envelope-driven cell-cell fusion – HeLa effector, CEM target cells, luciferase, cherry-pick, dose response (AID 652058); type: functional, cell-based;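 further: luciferase signal from HIV-1 Env mediated cell-cell fusion of effector and target cells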
[9] = HIV-1 AD8 envelope cell-cell fusion blockers – cherry-pick, dose response (AID 652062); type: functional, cell-based;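 further: luciferase signal from cell-cell fusion driven by HIV-1 clade B AD8 Env; potency is for inhibitors of fusion seen as a drop in luminescence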

CC(=O)Nc1cccc(OCC(=O)NS(=O)(=O)c2ccc(Cl)cc2)c1
IC50 (Protein skinhead-1): > 100 µM (inactive)

C=CCN1C(=O)C2(C(C(=O)OCC)=C(N)Oc3ccccc32)C2=C1CCCC2=O (stereo not drawn)
IC50 (Protein skinhead-1): > 100 µM (inactive)

NC1=NC[C@@H](Cc2ccc(O)cc2)N1CCc1cc(C(F)(F)F)cc(C(F)(F)F)c1
IC50 [1]: > 20 µM (inactive)

Nc1cc(-c2nc3ncccc3o2)ccc1Cl
EC50 [2]: 4.25 µM (active) | EC50 (H4): > 120 µM (not active)

Nc1c2c(nc3ccc(Br)cc13)N(Cc1ccccc1)CC2
CC50 [3]: 9.17 µM (active)

Cc1nn(C)c(Cl)c1CN1CCN(C2CCCCC2)C(CCO)C1 (stereo not drawn)
EC50 [4]: > 112 µM (not active) | EC50 [5]: > 112 µM (not active)

COc1ccc(-c2cc(-c3cccs3)nc(OC)c2C#N)cc1OC
IC50 [1]: > 20 µM (inactive)

O=C(CCc1nc(O)c2ccccc2n1)NCCN1C(=O)S/C(=C\c2ccccc2Cl)C1=O
CC50 [3]: 23.9 µM (active)

COc1ccc(C(CCN2CCCC2)c2c(OC)cc(OC)c3c(-c4ccccc4)cc(=O)oc23)cc1 (stereo not drawn)
IC50 [1]: > 20 µM (inactive)

Cc1ccc(CSc2nnc(-c3ccco3)o2)cc1
IC50 (Protein skinhead-1): 22 µM (active)

CC(=O)c1ccc(NC(S)=NCc2cccnc2)cc1
AC50 (INS1): 5.94 µM (active)

Cc1ccc(C2CC(c3cccc(Br)c3)n3nc(N)nc3N2)cc1 (stereo not drawn)
AC50 (INS1): 34.1 µM (active)

CC(=O)C1=C(C)NC(SCC(=O)c2ccc(Cl)cc2)=C(C#N)C1CC(C)C (stereo not drawn)
CC50 [3]: 23.4 µM (active)

CC1CCN(C(=O)C2CCN(CC(C)c3ccccc3)CC2)CC1 (stereo not drawn)
EC50 [4]: > 112 µM (not active) | EC50 [5]: > 112 µM (not active)

COc1ccccc1-c1oc2ccccc2c1C#CC1(N)CCCCC1
AC50 [6]: 5.52 µM (active) | IC50 [1]: > 20 µM (inactive)

CCCCOC(=O)c1ccc(NC(=O)CN2C(=O)NC3(CCCCCC3)C2=O)cc1
CC50 [3]: 31.9 µM (active)

C=CCn1c(N)c(C(=O)Nc2cccc(C)c2)c2nc3ccccc3nc21
CC50 [3]: 11.4 µM (active) | EC50 [7]: 2.97 µM (active) | EC50 (Streptokinase A): > 150 µM (not active) | EC50 (Streptococcus): 8.54 µM (active) | EC50 (Protein RecA): 13.3 µM (active)

CCc1ccc(NC2=NC(=O)/C(=C/c3cc(OC)c(OC)c(OC)c3)S2)cc1
CC50 [3]: 21.2 µM (active)

Cc1cccc(C)c1NC(=O)N1CCN(c2nc3ccccc3s2)CC1
AC50 [8]: 1.05 µM (active) | AC50 [9]: 10 µM (active)
